Data taken from US20240352396A1, “PE[…]-C[…] CULTURE INCUBATOR” (Northeastern University, priority 2023, published 2024).

Key:
[1] = system: MCF7 cultures; conditions: MCF7 in 24-well plate, 5% O2 incubator, 5 mM sodium azide; rose from 3% O2 to the incubator setpoint; PBS-spiked cultures returned to 3% O2
Experimental: (§1) MCF7 were seeded overnight in a 24-well plate and incubated at 5% O2 for 24 hours. […] Cells were incubated with 1:1000 live/dead dye (LIVE/DEAD Fixable Kit, Thermo Fisher Scientific) for 1 hour. Flow cytometry (Attune NxT, Thermo Fisher Scientific) of live singlets was used to determine the cell viability.

[2] = system: MCF7; conditions: 5 mM NaN3, 6 hours, 5% O2
Experimental: as §1

## [N-]=[N+]=[N-] [sodium azide]
[1]
  pericellular O2 tension: 5 % O2
[2]
  MCF7 cell viability: no significant change
